From patent publication US20100074870A1, “Probiotic infant products” (priority 2008, published 2010)

Each molecule was assayed on B. longum AH1206 (assay: Antibiotic sensitivity, minimum inhibitory concentration (MIC)). Conditions: antibiotic against B. longum AH1206; unit not given.

Compared with `CCC[C@@H]1C[C@@H](C(=O)N[C@@H]([C@H]2O[C@H](SC)[C@H](O)[C@@H](O)[C@H]2O)[C@H](C)Cl)N(C)C1` [clindamycin], `CN[C@H](CC(C)C)C(=O)N[C@H]1C(=O)N[C@@H](CC(N)=O)C(=O)N[C@H]2C(=O)N[C@H]3C(=O)N[C@H](C(=O)N[C@H](C(=O)O)c4cc(O)cc(O)c4-c4cc3ccc4O)[C@H](O)c3ccc(c(Cl)c3)Oc3cc2cc(c3O[C@@H]2O[C@H](CO)[C@@H](O)[C@H](O)[C@H]2O[C@H]2C[C@](C)(N)[C@H](O)[C@H](C)O2)Oc2ccc(cc2Cl)[C@H]1O` [vancomycin] is higher in “minimum inhibitory concentration (MIC)” value: 0.32 for the first, 0.75 for the second.

With `Cc1ncc([N+](=O)[O-])n1CCO` [metronidazole] the “minimum inhibitory concentration (MIC)” value was 0.38.
